Reference: patent US20240285670A1, “THERAPEUTIC TREATMENT OF TUMORS BY BLOCKING THE HEME SYNTHESIS-EXPORT AXIS” (Università degli Studi di Torino, priority 2021, published 2024)

Assays:
[1] = test system: C80 cells; test: Activity of mitochondrial ETC complexes I-IV in C80 cells; format: cell-based, human; conditions: FLVCR1a-silenced vs scramble shRNA C80 cells
Excerpt: (A, C, E) Activities of the mitochondrial electron transport chain complexes I-IV. FLVCR1a-silenced Caco2 (A), SKCO1 (C) or C80 cells (E) are compared to cells expressing a scramble shRNA. Results were expressed as nmol NAD^+/min/mg mitochondrial protein for complex I, nmol reduced cytochrome c/min/mg mitochondrial protein for complexes II-III, nmol oxidized cytochrome c/min/mg mitochondrial protein for complex IV. Data represent mean±SEM, n=3. For statistical analyses, an unpaired Student's t-test was used; *=p<0.05, **=p<0.01. (B, D, F) Mitochondrial ATP levels measured by a bioluminescent assay kit. FLVCR1a-silenced Caco2 (B), SKCO1 (D) or C80 cells (F) are compared to cells expressing a scramble shRNA. Results are expressed as nmol/mg mitochondrial proteins. Data represent mean±SEM, n=3. […] Results were expressed as nmol NAD^+/min/mg mitochondrial protein for complex I, nmol reduced cytochrome c/min/mg mitochondrial protein for complexes II-III, nmol oxidized cytochrome c/min/mg mitochondrial protein for complex IV. […] (H) Mitochondrial ATP levels measured by a bioluminescent assay kit in Caco2 cells overexpressing FLVCR1a (indicated as FLVCR1a+) compared to cells stably transduced with an empty vector. Results are expressed as nmol/mg mitochondrial proteins. […]
The activity of mitochondria respiration complexes was measured according to (Wibom et al., 2002).

[2] = test system: C80 cells; test: TCA cycle flux in C80 cells; format: cell-based, human; conditions: FLVCR1a-silenced vs scramble shRNA C80 cells
Excerpt: TCA cycle flux is reported in the centre of the figure and expressed as pmol CO2/h/mg protein. Data represent mean±SEM, n=3. For statistical analyses, an unpaired Student's t-test was used. **=p<0.01. Moreover, TCA cycle enzymes activities are reported in boxes and expressed as mU/mg mitochondrial proteins. Data represent mean±SEM, n=3. For statistical analyses, an unpaired Student's t-test was used; *=p<0.05, ***=p<0.001. […] Results are expressed as pmol CO2/h/mg protein. Data represent mean±SEM, n=3. For statistical analyses, an unpaired Student's t-test was used; *=p<0.05, **=p<0.01.
The glucose flux through TCA cycle was measured by radiolabeling cells with 2 μCi/ml [6-^14C]-glucose (55 mCi/mmol; PerkinElmer, Waltham, MA, USA, catalog n° NEC045X). Cell suspensions were incubated for 1 hour in a closed experimental system to trap the ^14CO2 developed from [^14C]-glucose. The reaction was stopped by injecting 0.5 ml of 0.8N HClO4. The amount of glucose transformed into CO2 through the TCA cycle was calculated as described (Riganti et al., 2004) and expressed as pmoles CO2/h/mg cell proteins.

FLVCR1a shRNA: shRNA specifically down-regulating FLVCR1a without targeting FLVCR1b; pLKO.1 lentiviral clone TRCN0000059599, antisense SEQ ID No.: 2 (antisense TTGCTAATGATGCTGTACTGG; sense CCAGTACAGCATCATTAGCAA)
ETC complexes activity [1]: increased ETC complexes activity
TCA cycle flux [2]: Increased TCA cycle flux
